Values after ≈ are worked out from the molar mass of the structure shown. Like-named read-outs stand apart in the source and are kept apart here.
Legend:
S. aureus ATCC 13709 = assay: MIC, S. aureus ATCC 13709 (Alamar Blue broth microdilution); type: cell-based; details: for MIC: Staphylococcus aureus, ATCC13709, S. aureus
E. coli ATCC 25922 = assay: MIC, E. coli ATCC 25922; type: cell-based; details: for MIC: Escherichia coli, ATCC25922, E. coli
[1] = S. aureus, Alamar Blue read after overnight incubation at 35° C.
[2] = E. coli, Alamar Blue read after overnight incubation at 35° C.
[3] = Alamar Blue read after overnight incubation at 35° C.

| Compound | MIC (S. aureus ATCC 13709; [3]) [µg/mL] | MIC (E. coli ATCC 25922; [3]) [µg/mL] | further results |
| --- | --- | --- | --- |
| CNc1cc(F)cc2c1[nH]c1nc(Oc3cnc(C)nc3)nc(N3CC(C4(N)CC4)C3)c12 [4.080] | – | – | MIC Sa (S. aureus ATCC 13709; [1]): ≤0.5 µg/mL; MIC Ec (E. coli ATCC 25922; [2]): 1 µg/mL (≈ 2.3 µM) |
| CNc1cccc2c1[nH]c1nc(Oc3cnc4ccoc4c3)nc(N3CC4C(N)C4C3)c12 (stereo not drawn) [3.23] | ≤ 0.5 | 2 (≈ 4.68 µM) | – |
| CNc1cc(F)cc2c1[nH]c1nc(Oc3cnc(N)nc3)nc(N3CCCC(N)C3)c12 (stereo not drawn) [4.180] | – | – | MIC Sa (S. aureus ATCC 13709; [1]): 1 µg/mL (≈ 2.36 µM); MIC Ec (E. coli ATCC 25922; [2]): 8 µg/mL (≈ 18.9 µM) |
| CNc1cc(Cl)cc2c1[nH]c1nc(Oc3cnc(C)nc3)nc(N3CC4CCCNC4C3)c12 (stereo not drawn) [6.13] | – | – | MIC Sa (S. aureus ATCC 13709): ≤0.5 µg/mL; MIC Ec (E. coli ATCC 25922): ≤0.5 µg/mL |
| CNc1cc(F)cc2c1[nH]c1nc(Oc3cnc(CF)nc3)nc(N3C[C@H]4CC3C[C@H]4N)c12 [4.443] | ≤ 0.5 | ≤ 0.5 | – |
| CNc1cccc2c1[nH]c1nc(Sc3cnc4cccnc4c3)nc(N3CC(N)C3)c12 [1.29] | 1 (≈ 2.33 µM) | > 64 | – |
| CNc1cc(F)cc2c1[nH]c1nc(Oc3cnc(NC4CC4)nc3)nc(N3CCC(N)C3)c12 (stereo not drawn) [4.222] | – | – | MIC Sa (S. aureus ATCC 13709; [1]): ≤0.5 µg/mL; MIC Ec (E. coli ATCC 25922; [2]): ≤0.5 µg/mL |
| CNc1cc(F)cc2c1[nH]c1nc(Oc3cnc(SC)nc3)nc(N3C[C@H](N)C4(CC4)C3)c12 [4.194] | ≤ 0.5 | ≤ 0.5 | – |
| CNc1cc(F)cc2c1[nH]c1nc(Oc3cncc(-c4nnnn4C)c3)nc(N3CC4CNC(C4)C3)c12 (stereo not drawn) [4.170] | 2 (≈ 3.99 µM) | > 16 | – |
| CNc1cc(F)cc2c1[nH]c1nc(Oc3cnc(C)nc3)nc(N3CC4[C@H](N)C[C@]4(C)C3)c12 (stereo partly drawn) [4.146] | ≤ 0.5 | ≤ 0.5 | – |
| CNc1cc(F)cc2c1[nH]c1nc(Oc3cnc(N)nc3)nc(N3CCC(CN)C3)c12 (stereo not drawn) [4.176] | ≤ 0.5 | 1 (≈ 2.36 µM) | – |
| CNc1cc(F)cc2c1[nH]c1nc(Oc3cnc(OC)nc3)nc(N3C[C@H](N)C4(CC4)C3)c12 [4.433] | ≤ 0.5 | ≤ 0.5 | – |
| CNc1cc(F)cc2c1[nH]c1nc(Oc3cncnc3)ncc12 [4.031] | 2 (≈ 6.45 µM) | > 16 | – |
| CNc1cccc2c1[nH]c1nc(Oc3cncc(F)c3)nc(N3CCC4(CNC4)C3)c12 [3.66] | 8 (≈ 19.1 µM) | > 32 | – |
| CNc1cc(F)cc2c1[nH]c1nc(Oc3cnc(C)nc3)nc(N3CC4CC3CC4N)c12 (stereo not drawn) [4.130] | – | – | MIC Sa (S. aureus ATCC 13709; [1]): ≤0.5 µg/mL; MIC Ec (E. coli ATCC 25922; [2]): ≤0.5 µg/mL |
| CNc1cc(F)cc2c1[nH]c1nc(Oc3ccc4c(c3)C(=O)NC4)nc(N3CCC4(CC4N)C3)c12 (stereo not drawn) [4.266] | – | – | MIC Sa (S. aureus ATCC 13709; [1]): ≤0.5 µg/mL; MIC Ec (E. coli ATCC 25922; [2]): 1 µg/mL (≈ 2.11 µM) |
| CNc1cccc2c1[nH]c1nc(Sc3cnc4ccc[n+]([O-])c4c3)nc(N3CC4C(N)C4C3)c12 (stereo not drawn) [1.13] | – | ≤ 0.5 | MIC Sa (S. aureus ATCC 13709; [1]): ≤0.5 µg/mL |
| CNc1cccc2c1[nH]c1nc(Oc3ccc(C(=O)OC)nc3)nc(N3CC4C(N)C4C3)c12 (stereo not drawn) [3.21] | ≤ 0.5 | 1 (≈ 2.24 µM) | – |
| CNc1cc(F)cc2c1[nH]c1nc(Oc3cnc(C)nc3)nc(N3C[C@H](N)[C@@H](O)C3)c12 [4.136] | – | – | MIC Sa (S. aureus ATCC 13709; [1]): 2 µg/mL (≈ 4.71 µM); MIC Ec (E. coli ATCC 25922; [2]): 8 µg/mL (≈ 18.8 µM) |
| CNc1cccc2c1[nH]c1nc(Sc3cnc4cccnc4c3)nc(N3C[C@H](N)C[C@@H]3CO)c12 [1.68] | 16 (≈ 33.9 µM) | 32 (≈ 67.7 µM) | – |
| CNc1cc(F)c(F)c2c1[nH]c1nc(Oc3cnc(C)nc3)nc(N3CC4(CC[C@H]4N)C3)c12 [5.01] | ≤ 0.5 | ≤ 0.5 | – |
| COc1cccc2c1[nH]c1nc(Oc3cnc4cccnc4c3)nc(N3CC4C(N)C4C3)c12 (stereo not drawn) [2.14] | – | – | MIC Sa (S. aureus ATCC 13709; [1]): 1 µg/mL (≈ 2.28 µM); MIC Ec (E. coli ATCC 25922; [2]): >64 µg/mL |
| CCCc1ncc(Oc2nc(N3C[C@H](N)C4(CC4)C3)c3c(n2)[nH]c2c(NC)cc(F)cc23)cn1 [4.304] | ≤ 0.5 | ≤ 0.5 | – |
| CNc1cc(F)cc2c1[nH]c1nc(Oc3cncc(C(N)=O)c3)nc(N3CC4C(N)C4C3)c12 (stereo not drawn) [4.237] | ≤ 0.5 | 2 (≈ 4.46 µM) | – |

| Compound | MIC (S. aureus ATCC 13709; [3]) [µg/mL] | MIC (E. coli ATCC 25922; [3]) [µg/mL] | further results |
| --- | --- | --- | --- |
| COc1cccc2c1[nH]c1nc(Sc3cnc4ccc[n+]([O-])c4c3)nc(N3CC(N)C3)c12 [1.77] | 2 (≈ 4.49 µM) | > 64 | – |
| CNc1cc(F)cc2c1[nH]c1nc(Oc3ccc(C#N)nc3)nc(N3C[C@H](N)C4(CC4)C3)c12 [4.329] | – | – | MIC Sa (S. aureus ATCC 13709; [1]): ≤0.5 µg/mL; MIC Ec (E. coli ATCC 25922; [2]): ≤0.5 µg/mL |
| CNc1cc(F)cc2c1[nH]c1nc(Oc3cncnc3)nc(N3CC4C(CN)C4C3)c12 (stereo not drawn) [4.004] | ≤ 0.5 | 2 (≈ 4.76 µM) | – |
| CNc1cccc2c1[nH]c1nc(Oc3cncc(C(N)=O)c3)nc(N3CC4C(N)C4C3)c12 (stereo not drawn) [3.19] | 8 (≈ 18.6 µM) | 32 (≈ 74.3 µM) | – |
| CNc1cccc2c1[nH]c1nc(Oc3cncnc3)nc(N3CC(N)C4(CC4)C3)c12 (stereo not drawn) [3.45] | ≤ 0.5 | ≤ 0.5 | – |
| CNc1cc(F)cc2c1[nH]c1nc(Oc3cnc(COC)nc3)nc(N3CC(N)C4(CC4)C3)c12 (stereo not drawn) [4.343] | – | – | MIC Sa (S. aureus ATCC 13709; [1]): ≤0.5 µg/mL; MIC Ec (E. coli ATCC 25922; [2]): ≤0.5 µg/mL |
| CNc1cccc2c1[nH]c1nc(Sc3cnc4ccc[n+]([O-])c4c3)nc(N3CCC[C@@H](N)C3)c12 [1.34] | 1 (≈ 2.12 µM) | 4 (≈ 8.46 µM) | – |
| CNc1cc(F)cc2c1[nH]c1nc(Oc3cnc(C)nc3)nc(N3CC4CC3CC4N)c12 (stereo not drawn) [4.128] | – | – | MIC Sa (S. aureus ATCC 13709; [1]): ≤0.5 µg/mL; MIC Ec (E. coli ATCC 25922; [2]): 4 µg/mL (≈ 9.21 µM) |
| CNc1cccc2c1[nH]c1nc(Sc3cnc4nccnc4c3)nc(N3CC4C(N)C4C3)c12 (stereo not drawn) [1.16] | ≤ 0.5 | 1 (≈ 2.2 µM) | – |
| CNc1cccc2c1[nH]c1nc(Oc3cncnc3)nc(N3CCN(Cc4ccccn4)CC3)c12 [3.54] | 8 (≈ 17.1 µM) | > 32 | – |
| CNc1nccc2c1[nH]c1nc(Oc3cncnc3)nc(N3CC[C@@H](N)C3)c12 [7.02] | > 64 | 32 (≈ 84.8 µM) | – |
| CNc1cc(F)cc2c1[nH]c1nc(Oc3cnc(C)nc3)nc(N3CC(NC(=O)C(N)CO)C4(CC4)C3)c12 (stereo not drawn) [4.124] | – | – | MIC Sa (S. aureus ATCC 13709; [1]): ≤0.5 µg/mL; MIC Ec (E. coli ATCC 25922; [2]): 8 µg/mL (≈ 15.3 µM) |
| CNc1cc(Cl)cc2c1[nH]c1nc(Oc3cncnc3)nc(N3CC4(CC4N)C3)c12 (stereo not drawn) [6.12] | – | – | MIC Sa (S. aureus ATCC 13709): ≤0.5 µg/mL; MIC Ec (E. coli ATCC 25922): ≤0.5 µg/mL |
| CNc1cc(F)cc2c1[nH]c1nc(Oc3cnc4c(c3)C(=O)NC4)nc(N3C[C@H](N)C4(CC4)C3)c12 [4.356] | ≤ 0.5 | 4 (≈ 8.43 µM) | – |
| CNc1cc(F)cc2c1[nH]c1nc(Oc3cnc(C)nc3)nc(-c3cncc(N)c3)c12 [4.450] | ≤ 0.5 | 2 (≈ 4.8 µM) | – |
| CNc1cccc2c1[nH]c1nc(Oc3cncnc3)nc(N3CC4C(N)C4C3)c12 (stereo not drawn) [3.28] | 1 (≈ 2.57 µM) | 2 (≈ 5.15 µM) | – |
| CNc1cccc2c1[nH]c1nc(Oc3cnc(N)nc3)nc(N3CC4C(N)C4C3)c12 (stereo not drawn) [3.32] | ≤ 0.5 | 2 (≈ 4.96 µM) | – |
| CNc1cc(F)cc2c1[nH]c1nc(Oc3cnc(C)nc3)nc(N3CC4CC(N)C3C4)c12 (stereo not drawn) [4.154] | – | – | MIC Sa (S. aureus ATCC 13709; [1]): 2 µg/mL (≈ 4.6 µM); MIC Ec (E. coli ATCC 25922; [2]): 16 µg/mL (≈ 36.8 µM) |
| CNc1cc(F)cc2c1[nH]c1nc(Oc3cnc(N(C)C)nc3)nc(N3CC4C(N)C4C3)c12 (stereo not drawn) [4.208] | ≤ 0.5 | ≤ 0.5 | – |
| CNc1cccc2c1[nH]c1nc(Sc3cnc4cccnc4c3)nc(N3CC4C(C3)C4(N)CO)c12 (stereo not drawn) [1.30] | 16 (≈ 33 µM) | > 64 | – |
| CNc1cc(F)c(C)c2c1[nH]c1nc(Oc3cnc(C)nc3)nc(NC3CCCCC3N)c12 (stereo not drawn) [6.22] | – | – | MIC Sa (S. aureus ATCC 13709): >16 µg/mL; MIC Ec (E. coli ATCC 25922): >16 µg/mL |
| CNc1cc(F)cc2c1[nH]c1nc(Oc3cnc(C#N)c(C)c3)nc(N3CC4(CC[C@H]4N)C3)c12 [4.326] | ≤ 0.5 | ≤ 0.5 | – |
| COc1cccc2c1[nH]c1nc(Oc3cncnc3)nc(N3CCC(NC(C)=O)C3)c12 (stereo not drawn) [2.11] | – | – | MIC Sa (S. aureus ATCC 13709; [1]): 4 µg/mL (≈ 9.54 µM); MIC Ec (E. coli ATCC 25922; [2]): >64 µg/mL |
| CNc1ncnc2c1[nH]c1nc(Oc3cncc(F)c3)nc(N3CC4C(N)C4C3)c12 (stereo not drawn) [7.04] | 8 (≈ 19.6 µM) | 32 (≈ 78.5 µM) | – |

— US10858360B2, “Tricyclic gyrase inhibitors” (priority 2011, dated 2020)
